# Values of other authors in PMC10343355, “Finding the Right Solvent: A Novel Screening Protocol for Identifying Environmentally Friendly and Cost-Effective Options for Benzenesulfonamide” (Molecules, 2023).
# Where two headings read alike, the source gives them in different places.
# Set-up: method as in Li et al.
# Conditions: ref Li et al., cited from earlier work
structure (smiles),measurement,setting,value
"NS(=O)(=O)c1ccccc1 [BSA, Benzenesulfonamide]",log(x1)exp,"Acetonitrile, 0.00 °C",-1.46
same,log(x1)exp,"Acetonitrile, 6.00 °C",-1.40
same,log(x1)exp,"Acetonitrile, 10.30 °C",-1.35
same,log(x1)exp,"Acetonitrile, 15.80 °C",-1.30
same,log(x1)exp,"Acetonitrile, 20.10 °C",-1.25
same,log(x1)exp,"Acetonitrile, 25.70 °C",-1.19
same,log(x1)exp,"Acetonitrile, 30.00 °C",-1.14
same,log(x1)exp,"Acetonitrile, 35.00 °C",-1.09
same,log(x1)exp,"Acetonitrile, 40.00 °C",-1.03
same,log(x1)exp,"Acetonitrile, 44.50 °C",-0.98
same,log(x1)exp,"Acetonitrile, 50.00 °C",-0.93
same,log(x1)exp,"Cyclopentanone, 0.00 °C",-0.86
same,log(x1)exp,"Cyclopentanone, 6.00 °C",-0.84
same,log(x1)exp,"Cyclopentanone, 10.70 °C",-0.82
same,log(x1)exp,"Cyclopentanone, 16.00 °C",-0.80
same,log(x1)exp,"Cyclopentanone, 20.60 °C",-0.78
same,log(x1)exp,"Cyclopentanone, 26.00 °C",-0.75
same,log(x1)exp,"Cyclopentanone, 30.60 °C",-0.73
same,log(x1)exp,"Cyclopentanone, 36.00 °C",-0.70
same,log(x1)exp,"Cyclopentanone, 40.20 °C",-0.68
same,log(x1)exp,"Dichloromethane, 0.00 °C",-2.87
same,log(x1)exp,"Dichloromethane, 6.00 °C",-2.76
same,log(x1)exp,"Dichloromethane, 10.30 °C",-2.67
same,log(x1)exp,"Dichloromethane, 15.80 °C",-2.56
same,log(x1)exp,"Dichloromethane, 20.10 °C",-2.48
same,log(x1)exp,"Dichloromethane, 25.70 °C",-2.37
same,log(x1)exp,"Dichloromethane, 30.00 °C",-2.31
same,log(x1)exp,"Dichloromethane, 35.00 °C",-2.22
same,log(x1)exp,"Dichloromethane, 39.00 °C",-2.16
same,log(x1)exp,"Ethyl Acetate, 0.00 °C",-1.49
same,log(x1)exp,"Ethyl Acetate, 6.00 °C",-1.44
same,log(x1)exp,"Ethyl Acetate, 10.30 °C",-1.41
same,log(x1)exp,"Ethyl Acetate, 15.80 °C",-1.37
same,log(x1)exp,"Ethyl Acetate, 20.10 °C",-1.33
same,log(x1)exp,"Ethyl Acetate, 25.70 °C",-1.29
same,log(x1)exp,"Ethyl Acetate, 30.00 °C",-1.25
same,log(x1)exp,"Ethyl Acetate, 35.00 °C",-1.21
same,log(x1)exp,"Ethyl Acetate, 40.00 °C",-1.17
same,log(x1)exp,"Ethyl Acetate, 44.50 °C",-1.13
same,log(x1)exp,"Ethyl Acetate, 50.00 °C",-1.09
same,log(x1)exp,"Ethyl Formate, 0.00 °C",-1.74
same,log(x1)exp,"Ethyl Formate, 6.00 °C",-1.69
same,log(x1)exp,"Ethyl Formate, 10.30 °C",-1.64
same,log(x1)exp,"Ethyl Formate, 15.80 °C",-1.59
same,log(x1)exp,"Ethyl Formate, 20.10 °C",-1.54
same,log(x1)exp,"Ethyl Formate, 25.70 °C",-1.48
same,log(x1)exp,"Ethyl Formate, 30.00 °C",-1.44
same,log(x1)exp,"Ethyl Formate, 35.00 °C",-1.38
same,log(x1)exp,"Ethyl Formate, 40.00 °C",-1.33
same,log(x1)exp,"Ethyl Formate, 44.50 °C",-1.28
same,log(x1)exp,"Ethyl Formate, 50.00 °C",-1.22
same,log(x1)exp,"Isobutanol, 0.00 °C",-2.41
same,log(x1)exp,"Isobutanol, 6.00 °C",-2.35
same,log(x1)exp,"Isopentanol, 0.00 °C",-2.38
same,log(x1)exp,"Isopentanol, 6.00 °C",-2.31
same,log(x1)exp,"Isopentanol, 10.70 °C",-2.25
same,log(x1)exp,"Isopentanol, 16.00 °C",-2.17
same,log(x1)exp,"Isopentanol, 20.60 °C",-2.09
same,log(x1)exp,"Isopentanol, 26.00 °C",-2.00
same,log(x1)exp,"Isopentanol, 30.60 °C",-1.92
same,log(x1)exp,"Isopentanol, 36.00 °C",-1.83
same,log(x1)exp,"Isopentanol, 40.20 °C",-1.76
same,log(x1)exp,"Isopentanol, 46.00 °C",-1.68
same,log(x1)exp,"Isopentanol, 51.30 °C",-1.60
same,log(x1)exp,"Methanol, 0.00 °C",-1.53
same,log(x1)exp,"Methanol, 6.00 °C",-1.49
same,log(x1)exp,"Methanol, 10.30 °C",-1.45
same,log(x1)exp,"Methanol, 15.80 °C",-1.39
same,log(x1)exp,"Methanol, 20.10 °C",-1.34
same,log(x1)exp,"Methanol, 25.70 °C",-1.27
same,log(x1)exp,"Methanol, 30.00 °C",-1.21
same,log(x1)exp,"Methanol, 40.00 °C",-1.09
same,log(x1)exp,"Methanol, 44.50 °C",-1.03
same,log(x1)exp,"Methanol, 50.00 °C",-0.97
same,log(x1)exp,"n-Butanol, 46.00 °C",-1.56
same,log(x1)exp,"n-Butanol, 51.30 °C",-1.49
same,log(x1)exp,"n-Pentanol, 36.00 °C",-1.78
same,log(x1)exp,"n-Pentanol, 40.20 °C",-1.73
same,log(x1)exp,"n-Pentanol, 46.00 °C",-1.63
same,log(x1)exp,"n-Pentanol, 51.30 °C",-1.56
same,log(x1)exp,"n-Propanol, 0.00 °C",-2.09
same,log(x1)exp,"n-Propanol, 6.00 °C",-2.04
same,log(x1)exp,"n-Propanol, 10.70 °C",-1.99
same,log(x1)exp,"n-Propanol, 16.00 °C",-1.91
same,log(x1)exp,"n-Propanol, 20.60 °C",-1.84
same,log(x1)exp,"n-Propanol, 26.00 °C",-1.76
same,log(x1)exp,"n-Propanol, 30.60 °C",-1.68
same,log(x1)exp,"n-Propanol, 36.00 °C",-1.60
same,log(x1)exp,"n-Propanol, 40.20 °C",-1.53
same,log(x1)exp,"n-Propanol, 46.00 °C",-1.44
same,log(x1)exp,"n-Propanol, 51.30 °C",-1.37
same,log(x1)exp,"solvent Isobutanol, T 10.70 °C, mole fraction solubility",-2.27
same,log(x1)exp,"solvent Isobutanol, T 16.00 °C, mole fraction solubility",-2.18
same,log(x1)exp,"solvent Isobutanol, T 20.60 °C, mole fraction solubility",-2.09
same,log(x1)exp,"solvent Isobutanol, T 26.00 °C, mole fraction solubility",-2.00
same,log(x1)exp,"solvent Isobutanol, T 30.60 °C, mole fraction solubility",-1.92
same,log(x1)exp,"solvent Isobutanol, T 36.00 °C, mole fraction solubility",-1.83
same,log(x1)exp,"solvent Isobutanol, T 40.20 °C, mole fraction solubility",-1.75
same,log(x1)exp,"solvent Isobutanol, T 46.00 °C, mole fraction solubility",-1.67
same,log(x1)exp,"solvent Isobutanol, T 51.30 °C, mole fraction solubility",-1.59
